What is called ED50 is the midpoint of the dose-response relation.

In one data set the test system is acetic acid peritonitis. In words: Anti-exudative activity: acetic acid peritonitis in the rat. It is filed as in vivo. The conditions noted are these: for PERITONEAL EXUDATE ml ± E.S.: controls 2.91 ± 0.12; for anti-exudative activity: oral dose of 10 mg/kg, result in words; for EXUDATE VOLUME ml ± E.S.: controls 2.58 ± 0.18. As for the experimental part:
The test was carried out according to the procedure described by Arrigoni-Martelli (Boll.Chim. Far. 107, 29, 1968). This method is based upon the evaluation of the anti-exudative effect of a drug at the peritoneal level, following a intraperitoneal injection of 10 ml/kg of a 0.5% acetic acid solution.
The compounds under test were administered oral ly one hour before the inflammatory agent; 30 minutes after the treatment the animals were killed and the fluid from the peritoneal cavity was drawn and measured.
The test compounds were administered by oral route 1 hour before intraperitoneal injection of acetic acid (10 ml/kg of a 0.5% solution).
The anti-exudative activity was determined on the basis of the peritoneal exudate of the treated animals, in comparison with the controls.

The subject of data set [1] is Writhing test induced by phenyl-benzoquinone. In words: Phenylbenzoquinone writhing test in the rat. Type of data set: in vivo. The protocol: (§1) The activity tests were carried out on male Spra gue-Dawley rats weighing 200+20 g and on male Swiss mice weighing 26+3 g.
(§2) The test compounds were administered orally by means of gastroesophageal tube, in the form of a suspen sion in a 10 ml/kg mucilage of 5% gum arabic; and intraperitoneally in the form of an aqueous suspen sion added with a few drops of Tween 80, in the con stant volume of 10 ml/kg.

A further data set has as its system carrageenin oedema. In words: Antiinflammatory activity: carrageenin oedema in the rat. It is filed as in vivo. The conditions noted are these: po, 4 h, read-out: OEDEMA INHIBITION % at the fourth hour. As for the experimental part:
as §1, §2
The compounds under test and the control ones were administered orally one hour before the injection of 0.1 ml of 1% carrageenin in the right paw of the animals.
The volume of the paw was measured by means of a plethysmograph immediately before the injection and 2, 4 and 6 hours after.
The results were expressed as percentage inhibi tion of the oedema in the treated animals in comparison with the control animals, at the time of the maximum oedema development (fourth hour after the carrageenin injection).
Background: Carrageenan injected into the paw causes an acute inflammation.

A further data set has as its system gastric ulceration. Type of data set: in vivo, rat. Conditions: os; for ULCERA-TION DEGREE: scale 0 to 4. As for the experimental part: To rats fasted for 18 hours, with water ad libitum, were administered the compounds under test at "0" time and after 2 hours. Control rats were treated with established anti-inflammatory agents.
6 Hours after the beginning of the test, the animals were killed by ether inhalation.
Gastric ulceration was assessed on the ground of values ranging from 0 to 4: • 0 = no ulceration; • 1 = slight iperhaemia and/or a few ulcers; • 2 = severe iperhaemia and many punctiform ulcers; • 3 = severe submucosal hemorrage, one large ulcer and many punctiform ulcers; • 4 severe submucosal hemorrage and many large ulcers.
The ulcerogenic index was measured by the following formula (Lwoff. J.M., J. Pharmacol., 2, 81, 1971): [formula]

The subject of a further data set is Carrageenin pleuritis. In words: Carrageenin pleuritis in the rat. It is filed as in vivo. Conditions: for EXUDATE VOLUME: 30 min. before carrageenin and 6 hours after, exudate at 18 hours, controls 2.76 ± 0.38. The protocol: Compound HA-34 was tested for the protective activity against the exudative pleuritis reaction induced by carrageenin. HA-34 was administered 30 min. before the injection of carrageenin, and 6 hours after it. The experiment was carried out on male Spra- gue-Dawley rats, anestethized with ethyl urethane, which were subjected, in their right pleural cavity, to injection of 1.5 ml of air and then 0.1 ml of a 1% carrageenin solution, in sterile normal saline, according to the procedure by Van Armann et al. (J. Pharmac. Exp. Ther., 150, 328, 1965). Indometha cin and Piroxicam were employed as the control drugs, under the same conditions. 18 Hours after the intrapleuric carrageenin injec tion, the animals were killed by means of ether inhalation, and the pleuric exudate was collected and measured.

The subject of data set [2] is phenylbenzoquinone writhing test. In words: Phenylbenzoquinone writhing test in the mouse (ED50 and duration of effect). Type of data set: in vivo. The conditions noted are these: for % INHI-BITION / N° OF WRITHES IN 10' ml ± E.S.: Table 6, oral, one hour before the test; for N° OF WRITHES IN 10' ml ± E.S.: controls 52.4 ± 1.69; for % INHIBITION / Nº OF WRITHES IN 10' ml ± E.S.: Table 7, oral 1 mg/kg; for Nº OF WRITHES IN 10' ml ± E.S.: controls 53.2 ± 1.26. The protocol:
The analgesic effect was determined by the number of writhes of the abdomen recorded during 10 minutes (from 5 to 15 minutes after the phenylbenzo quinone injection).

Setting [3] is: Rattus norvegicus, po, Table 4, os, 10 mg/kg.
The mark [4] stands for this setting: Rattus norvegicus, po, 10 min, os, read-out: % INHIBI-TION.
The mark [5] stands for this setting: os, 100 mg/kg, one hour before carrageenin.
[6] abbreviates: 400 mg/kg, at 0 time and after 2 hours, killed at 6 hours.
[7] abbreviates: 30 min. before phenylbenzoquinone.

Read-outs that look alike come from different tables or passages of the source.

`Cc1nn2c(=O)c3c4c(sc3nc2s1)CCC4` [HA 30] yielded an inhibition in vivo at 10 mg/kg in the data set on acetic acid peritonitis (setting [3]) of 14%. Further, the “PERITONEAL EXUDATE ml ± E.S.” value in the data set on acetic acid peritonitis (Table 4, os, 10 mg/kg) came out at 2.50 ± 0.10 mL. Besides, the anti-exudative activity result with acetic acid peritonitis was “did not display valuable anti-exudat- ing properties”. In addition, in data set [1] (setting [4]), the inhibition in vivo at 0.5 mg/kg stood at 15% and the inhibition in vivo at 5 mg/kg was determined as 36%. Moreover, the analgesic action result in data set [1] (oral doses of 5 and 0.5 mg/kg, result in words) is on record as “substan tially comparable to the reference compound”. For the same molecule, the inhibition in vivo at 100 mg/kg in the data set on carrageenin oedema (setting [5]) was 35.6 ± 0.74%.
`Cc1cccc(Nc2ccccc2C(=O)O)c1C` [MFA, mephenamic acid] had an inhibition in vivo at 10 mg/kg in the data set with acetic acid peritonitis (setting [3]) of 6%. Further, in the data set on acetic acid peritonitis (Table 4, os, 10 mg/kg), the “PERITONEAL EXUDATE ml ± E.S.” value worked out at 2.60 ± 0.15 mL. In addition, in the data set with acetic acid peritonitis, the anti-exudative activity result is on record as “did not display valuable anti-exudat- ing properties”. Besides, the inhibition in vivo at 5 mg/kg in data set [1] (setting [4]) came out at 24%. For the same molecule, the inhibition in vivo at 10 mg/kg in data set [1] (Rattus norvegicus, po, 10 min, os, 10 mg/kg, read-out: % INHIBI-TION) is 33%. In addition, in the data set on gastric ulceration (200 mg/kg), the “% ANIMALS WITH ULCERS” value came out at 50%, the “ULCERA-TION INDEX” value is listed as 50 and the “ULCERA-TION DEGREE” value came out at 1.0. Moreover, in the data set with carrageenin oedema (setting [5]), the inhibition in vivo at 100 mg/kg was found to be 49.2 ± 0.86%.
In the data set on acetic acid peritonitis (setting [3]), `CCc1nn2c(=O)c3c4c(sc3nc2s1)CCCC4` [HA 32] showed an inhibition in vivo at 10 mg/kg of 74%. For the same molecule, the “PERITONEAL EXUDATE ml ± E.S.” value in the data set with acetic acid peritonitis (Table 4, os, 10 mg/kg) was determined as 0.93 ± 0.14 mL. In data set [1] (setting [4]), the inhibition in vivo at 0.5 mg/kg is 48% and the inhibition in vivo at 5 mg/kg worked out at 76%. Also, in the data set with gastric ulceration (400 mg/kg), the “ULCERA-TION INDEX” value was determined as 0 and the “ULCERA-TION DEGREE” value was found to be 0. In addition, the “% ANIMALS WITH ULCERS” value in the data set with gastric ulceration (setting [6]) turned out to be 0%. Also, in the data set with carrageenin oedema (setting [5]), the inhibition in vivo at 100 mg/kg stood at 49.6 ± 0.82%.
Take `CCOc1ccccc1-c1nn2c(=O)c3c4c(sc3nc2s1)CCCC4` [HA 36]: the inhibition in vivo at 10 mg/kg with acetic acid peritonitis (setting [3]) is 49%. Besides, in the data set with acetic acid peritonitis (Table 4, os, 10 mg/kg), the “PERITONEAL EXUDATE ml ± E.S.” value worked out at 1.48 ± 0.10 mL. Moreover, in data set [1] (setting [4]), the inhibition in vivo at 0.5 mg/kg turned out to be 22% and the inhibition in vivo at 5 mg/kg is 60%. Besides, in the data set on gastric ulceration (400 mg/kg), the “ULCERA-TION INDEX” value amounted to 0 and the “ULCERA-TION DEGREE” value amounted to 0. The “% ANIMALS WITH ULCERS” value in the data set on gastric ulceration (setting [6]) turned out to be 0%. In addition, in the data set with carrageenin oedema (setting [5]), the inhibition in vivo at 100 mg/kg is 52.7 ± 0.61%.
Molecule `O=c1c2c3c(sc2nc2sc(-c4ccccc4)nn12)CCCC3` [HA 33] returned an inhibition in vivo at 10 mg/kg with acetic acid peritonitis (setting [3]) of 68%. Further, the “PERITONEAL EXUDATE ml ± E.S.” value in the data set on acetic acid peritonitis (Table 4, os, 10 mg/kg) was 1.04 ± 0.16 mL. Also, in data set [1] (setting [4]), the inhibition in vivo at 0.5 mg/kg was found to be 27% and the inhibition in vivo at 5 mg/kg amounted to 70%. Besides, in the data set with gastric ulceration (400 mg/kg), the “ULCERA-TION INDEX” value is reported as 0 and the “ULCERA-TION DEGREE” value stood at 0. Moreover, in the data set with gastric ulceration (setting [6]), the “% ANIMALS WITH ULCERS” value was 0%. The inhibition in vivo at 100 mg/kg in the data set with carrageenin oedema (setting [5]) was found to be 39.6 ± 0.76%.
Consider `CC(=O)Oc1ccccc1C(=O)O` [ASA, Acetylsali cylic acid], for which the “PERITONEAL EXUDATE ml ± E.S.” value in the data set on acetic acid peritonitis (Table 4, os, 20 mg/kg) came to 2.76 ± 0.13 mL. In addition, the anti-exudative activity result in the data set with acetic acid peritonitis is “did not display valuable anti-exudat- ing properties”. Moreover, in data set [1] (Rattus norvegicus, po, 10 min, read-out: % INHIBI-TION), the inhibition in vivo at 50 mg/kg was 40%. Further, in the data set on gastric ulceration (200 mg/kg), the “% ANIMALS WITH ULCERS” value came out at 78%, the “ULCERA-TION INDEX” value was 112 and the “ULCERA-TION DEGREE” value was 1.5. For the same molecule, the inhibition in vivo at 100 mg/kg with carrageenin oedema is 31.4 ± 0.37%.
For the molecule `CN1C(C(=O)Nc2ccccn2)=C(O)c2ccccc2S1(=O)=O` [PIROXICAM, Piroxicam], the inhibition in vivo at 0.1 mg/kg with acetic acid peritonitis (Rattus norvegicus, po, Table 8, oral, 0.1 mg/kg) worked out at 24.6%. In addition, the inhibition in vivo at 1 mg/kg in the data set on acetic acid peritonitis (Rattus norvegicus, po, Table 8, oral, 1 mg/kg) stood at 51.2%. The same molecule showed an inhibition in vivo at 10 mg/kg with acetic acid peritonitis (Rattus norvegicus, po, Table 8, oral, 10 mg/kg) of 80%. Moreover, the inhibition in vivo at 20 mg/kg in the data set with acetic acid peritonitis (Rattus norvegicus, po, Table 8, oral, 20 mg/kg) was 95.2%. Further, the 50% effective dose (ED50) with acetic acid peritonitis (Rattus norvegicus, oral administration 1 hour before i.p. acetic acid) was 0.7 mg/kg; in data set [2] (Mus musculus, 1 h, oral administration one hour before the test, read-out: ED50), 1.2 mg/kg. Further, the “EXUDATE VOLUME ml ± E.S.” value in the data set on acetic acid peritonitis (Table 8, oral, 0.1 mg/kg, 1 hour before acetic acid) amounted to 1.94 ± 0.08 mL; in the data set on acetic acid peritonitis (Table 8, oral, 0.5 mg/kg) it was 1.37 ± 0.07 mL; with acetic acid peritonitis (Table 8, oral, 1 mg/kg), 1.26 ± 0.06 mL; in the data set with acetic acid peritonitis (Table 8, oral, 10 mg/kg), 0.49 ± 0.04 mL; in the data set with acetic acid peritonitis (Table 8, oral, 20 mg/kg) it was 0.12 ± 0.06 mL. Further, the “% INHIBITION” value was found to be 39.5% in the data set with Carrageenin pleuritis (5 mg/kg); 64.1% with Carrageenin pleuritis (10 mg/kg); 54.5% in data set [2] (setting [7]); 57.3% in data set [2] (1 h before phenylbenzoquinone); 67.6% in data set [2] (3 h before phenylbenzoquinone); 63.3% in data set [2] (4 h before phenylbenzoquinone). For the same molecule, the “% INHIBITION” value in data set [2] (6 h before phenylbenzoquinone) is 65.0%; in data set [2] (8 h before phenylbenzoquinone), 60.1%; in data set [2] (24 h before phenylbenzoquinone), 57.5%; in data set [2] (32 h before phenylbenzoquinone) it was 12.0%. Further, the figures for the “EXUDATE VOLUME” value in the data set with Carrageenin pleuritis (5 mg/kg) and in the data set on Carrageenin pleuritis (10 mg/kg) were 1.67 ± 0.33 and 0.99 ± 0.40, respectively. Moreover, the “% INHI-BITION” value in data set [2] (0.1 mg/kg) was determined as 11.8%; in data set [2] (0.5 mg/kg) it was 28.4%; in data set [2] (1 mg/kg), 54.8%; in data set [2] (2 mg/kg), 61.8%; in data set [2] (5 mg/kg), 82.2%. Further, the entries for the “N° OF WRITHES IN 10' ml ± E.S.” value in data set [2] (0.5 mg/kg), in data set [2] (1 mg/kg) and in data set [2] (5 mg/kg) were 37.5 ± 1.26, 23.7 ± 2.18 and 9.3 ± 1.44, respectively. For the same molecule, the “Nº OF WRITHES IN 10' ml ± E.S.” value in data set [2] (setting [7]) is reported as 24.2 ± 1.62; in data set [2] (1 h before phenylbenzoquinone) it was 22.7 ± 2.18; in data set [2] (8 h before phenylbenzoquinone), 21.2 ± 0.72; in data set [2] (24 h before phenylbenzoquinone), 22.6 ± 1.37.

(Values after EP0133934A2, “Pharmacologically active 1,3,4-thiadiazol-(3,2-a)-thieno-(2,3-d)-pyrimidin-5-(H)one derivatives” (NIKEPHARMA S.r.l., priority 1983, dated 1985).)
